Laboratory results published in paper PMC4163382, “Symbiotic Plant Peptides Eliminate Candida albicans Both In Vitro and in an Epithelial Infection Model and Inhibit the Proliferation of Immortalized Human Cells” (BioMed Research International, 2014).

How the values were obtained:
[1] = tested on: PK E6/E7 vaginal epithelial cells; assay: MTT assay, cytotoxicity on human epithelial cells; assay type: cell-based; conditions: MTT assay, PBgluc, 12.5 to 100 μg/mL, for cationic peptides antifungal concentration range (<25 μg/mL)
Description: (§1) The immortalized human vaginal epithelial cell line PK E6/E7 [15] was cultured in serum-free CKM supplemented with 0.005 μg/mL recombinant epidermal growth factor, 50 μg/mL bovine pituitary extract, L-glutamine, and antibiotic/antimycotic solution (Life Technologies) in a CO2 thermostat at 37°C [16]. Cells at 60–70% confluence were used in subsequent experiments.
MTT Assay. PK E6/E7 vaginal epithelial cells were seeded in the wells of a 96-well plate at a density of 1 × 10^4 cells per well in a final volume of 100 μL. CKM was then aspirated and 100 μL of the appropriate peptide diluted in PBgluc was added. After 3 hours of incubation at 37°C, the peptide solution was removed, and the cells were let to regenerate in CKM for 24 hours. Then 5 mg/mL 3-[4,5-dimethylthiazol-2-yl]-2,5-diphenyltetrazolium bromide (MTT) was added to each well and the plate was placed to 37°C for 4 hours. The amount of formazan formed by the activity of the mitochondrial succinate dehydrogenase of living cells was measured by using a microtiter plate reader (FLUOstar OPTIMA) at the wavelength of 560 nm.
10 μg/mL of primycin, a macrolide lactone antibiotic complex that rapidly kills PK cells, was used as a control for cytotoxicity in both assays.
(§2) MTT assays and impedance measurements were performed in at least four technical parallels and two biological replicates; all the data are presented as mean ± standard deviation. Significance was calculated with Newman-Keuls post hoc test using the GraphPad Prism version 5 for Windows and a probability (P) value of less than 0.05 was considered significant.

[2] = tested on: PK E6/E7 vaginal epithelial cells; assay: Real-Time Cell Analysis (RTCA), proliferation of human epithelial cells; assay type: cell-based; conditions: 3 hours treatment in PBgluc, cell index 40 hours after treatment
Description: as §1
Real-Time Cell Analysis (RTCA). 7 × 10^4 PK E6/E7 cells per well were seeded in 96-well E-plates (ACEA Biosciences) in which the bottoms of the wells were covered with microelectrodes and the epithelial cells were allowed to attach to the bottom of the wells for 20 hours. CKM was then aspirated and the cells were treated with 100 μL of the peptides diluted in PBgluc. […] The cell index at the beginning of the measurement after treatment was considered as 100% and values measured at 40 hours were expressed (see Supplementary Figure 1in Supplementary Materials available online at http://dx.doi.org/10.1155/2014/320796). […]
as §2

[3] = tested on: PK E6/E7 vaginal epithelial cells infected with C. albicans WO-1; assay: Vaginal epithelial cell - C. albicans coculture (RTCA); assay type: cell-based, human; conditions: PK E6/E7 + C. albicans WO-1, MOI of 5, 3 hours coculture then peptide 3 hours in PBgluc at both 25 and 50 μg/mL, RTCA at 40 hours
Description: PK E6/E7 cells were seeded in 96-well E-plates as described above for RTCA. On the next day, an overnight culture of C. albicans WO-1 was diluted to OD = 1 and let to grow until OD = 1.5–2. The fungal cell suspension was diluted in antibiotic/antimycotic-free CKM and was added to the human cells with a multiplicity of infection (MOI) of 5. After 3 hours of coculture at 37°C, CKM medium was replaced with NCR peptides in PBgluc. After 3 hours of incubation, peptides were removed and 200 μL of fresh antibiotic/antimycotic-free CKM was added. Subsequent measurements were performed as described above.
as §2

C. albicans WO-1 cells = assay: Cell permeability assay (calcein release); assay type: cell-based, Candida albicans; conditions: calcein-loaded C. albicans WO-1, 10 mM potassium phosphate buffer pH 7.0, peptide 50 μg/mL, fluorescence 485/530 nm
Description: Cell permeability was monitored by the release of the intracellularly accumulated dye calcein. Overnight C. albicans WO-1 cells were washed twice with and resuspended in 10 mM potassium phosphate buffer (pH = 7.0) at a concentration of 10^7 cells mL^−1. Cells were loaded with acetomethoxy-calcein at a final concentration of 5 μM for 2 hours at room temperature. Cells were washed three times to remove the extracellular dye and then 100 μL of the suspension was transferred to FIA black 96-well plates. NCR peptides were then added at a concentration of 50 mg/L, and the release of calcein (formed by the cells' esterases) was measured by its fluorescence in a microtiter plate reader (FLUOstar OPTIMA) at excitation and emission wavelengths of 485 nm and 530 nm, respectively. Calcein efflux was calculated as previously reported.

AFERTETRMLTIPCTSDANCPKVISPCHTKCFDGFCGWYIEGSYEGP [NCR001, anionic chemically synthesized mature NCR peptide of Medicago truncatula]
Effect on viability of the human cells [1]: no negative effect | Effect on proliferation of the human cells [2]: no negative effect | Prevention of C. albicans induced epithelial cell death [3]: unable to prevent vaginal epithelial cell death | Calcein (dye) efflux (C. albicans WO-1 cells): no calcein release
